Source: patent US12486290B2, “Isoindolinone and indazole compounds for the degradation of EGFR” (C4 THERAPEUTICS, INC., priority 2019, dated 2025)

Tests used:
Assay type in all cases: cell-based
[1] = target: T1, EGFR T790M/L858R (NCI-H1975 cells) (Homo sapiens, UniProt P00533, L858R/T790M); assay: EGFR (L858R) degradation analysis, Total EGFR (L858R) HTRF, NCI-H1975 cells; details: 6 hours
T1 construct: NCI-H1975 (harboring EGFR heterozygous T790M/L858R mutations); host or cells: NCI-H1975
Method in brief: (§1)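 Cells (10000/well NCI-H1975 and NCI-H1975+CS, 1000/well NCI-H3255) treated with 11-point half-log titrations from 10 μM top, in duplicate, for 6 hours at 37° C., 5% CO2. Total EGFR (L858R) quantified by HTRF FRET; untreated cells as negative and cell-free wells as positive control.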

[2] = target: T2, EGFR L858R (NCI-H3255 cells) (Homo sapiens, UniProt P00533, L858R); assay: EGFR (L858R) degradation analysis, Total EGFR (L858R) HTRF, NCI-H3255 cells; details: 6 hours
T2 construct: NCI-H3255 (harboring EGFR heterozygous L858R mutation); host or cells: NCI-H3255
Method in brief: as §1

[3] = target: T3, EGFR T790M/L858R/C797S (NCI-H1975+CS cells) (Homo sapiens, UniProt P00533, C797S/L858R/T790M); assay: EGFR (L858R) degradation analysis, Total EGFR (L858R) HTRF, NCI-H1975+CS cells; details: 6 hours, read-out: H1975 C797S clone EGFR DC50
T3 construct: NCI-H1975+CS (harboring EGFR heterozygous T/790M/L858R/C797S mutations) was generated using CRISPR technology; host or cells: NCI-H1975+CS (CRISPR-edited NCI-H1975)
Text: NCI-H1975 (harboring EGFR heterozygous T790M/L858R mutations) and NCI-H3255 (harboring EGFR heterozygous L858R mutation) were purchased from ATCC and NCI, respectively. NCI-H1975+CS (harboring EGFR heterozygous T/790M/L858R/C797S mutations) was generated using CRISPR technology to introduce the additional C797S mutation by Horizon Discovery. RPMI 1640 no-phenol red medium and fetal bovine serum (FBS) were purchased from Gibco (Grand Island, NY, USA). Cell culture flasks and 384-well microplates were acquired from VWR (Radnor, PA, USA). Total EGFR (L858R) HTRF assay kits were purchased from Cisbio (Bedford, MA, USA).
Degradation of EGFR protein containing L858R mutation was determined based on quantification of FRET signal using Total EGFR (L858R) HTRF assay kit. Test compounds were added to the 384-well plate from a top concentration of 10 μM with 11 points, half log titration in duplicates. NCI-H1975, NCI-H1975+CS or NCI-H3255 cells were added into 384-well plates at a cell density of 10000, 10000 or 1000 cells per well, respectively. The plates were kept at 37° C. with 5% CO2 for 6 hours. Cells treated in the absence of the test compound were the negative control. Positive control was set by wells containing all reagents but no cells. FRET signal was acquired on EnVision™ Multilabel Reader (PerkinElmer, Santa Clara, CA, USA).

T3 sequence (P00533 25-1210 T790M/C797S/L858R): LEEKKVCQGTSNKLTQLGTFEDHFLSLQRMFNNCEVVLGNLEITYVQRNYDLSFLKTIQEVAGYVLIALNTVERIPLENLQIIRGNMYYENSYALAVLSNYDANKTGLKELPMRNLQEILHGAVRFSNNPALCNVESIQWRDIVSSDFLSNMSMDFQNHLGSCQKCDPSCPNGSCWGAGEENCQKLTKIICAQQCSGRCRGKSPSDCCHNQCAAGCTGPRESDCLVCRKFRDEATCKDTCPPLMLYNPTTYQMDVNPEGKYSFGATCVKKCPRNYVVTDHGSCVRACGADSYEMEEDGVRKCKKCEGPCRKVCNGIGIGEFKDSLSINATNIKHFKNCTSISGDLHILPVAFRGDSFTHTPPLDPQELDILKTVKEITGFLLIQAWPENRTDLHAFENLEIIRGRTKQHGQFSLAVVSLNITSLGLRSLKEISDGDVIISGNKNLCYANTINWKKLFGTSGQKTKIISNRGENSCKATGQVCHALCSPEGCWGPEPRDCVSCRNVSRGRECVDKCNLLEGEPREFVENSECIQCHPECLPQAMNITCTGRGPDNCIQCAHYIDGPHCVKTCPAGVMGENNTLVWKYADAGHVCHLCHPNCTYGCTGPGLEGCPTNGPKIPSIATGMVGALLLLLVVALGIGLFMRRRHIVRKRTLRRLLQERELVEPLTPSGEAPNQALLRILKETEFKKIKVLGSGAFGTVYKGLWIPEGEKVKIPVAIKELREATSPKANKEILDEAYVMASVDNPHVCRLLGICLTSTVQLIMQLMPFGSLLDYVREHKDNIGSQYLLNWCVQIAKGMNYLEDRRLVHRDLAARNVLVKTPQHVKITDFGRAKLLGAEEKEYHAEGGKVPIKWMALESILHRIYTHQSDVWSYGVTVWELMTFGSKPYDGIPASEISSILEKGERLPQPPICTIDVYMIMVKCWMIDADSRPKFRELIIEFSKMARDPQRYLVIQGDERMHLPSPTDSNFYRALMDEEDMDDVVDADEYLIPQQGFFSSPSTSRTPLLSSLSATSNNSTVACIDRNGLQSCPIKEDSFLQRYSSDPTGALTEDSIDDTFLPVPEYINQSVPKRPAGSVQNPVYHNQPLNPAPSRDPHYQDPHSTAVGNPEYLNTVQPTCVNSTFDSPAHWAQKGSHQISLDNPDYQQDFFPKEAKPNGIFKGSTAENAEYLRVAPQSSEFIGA
T2 sequence (P00533 25-1210 L858R): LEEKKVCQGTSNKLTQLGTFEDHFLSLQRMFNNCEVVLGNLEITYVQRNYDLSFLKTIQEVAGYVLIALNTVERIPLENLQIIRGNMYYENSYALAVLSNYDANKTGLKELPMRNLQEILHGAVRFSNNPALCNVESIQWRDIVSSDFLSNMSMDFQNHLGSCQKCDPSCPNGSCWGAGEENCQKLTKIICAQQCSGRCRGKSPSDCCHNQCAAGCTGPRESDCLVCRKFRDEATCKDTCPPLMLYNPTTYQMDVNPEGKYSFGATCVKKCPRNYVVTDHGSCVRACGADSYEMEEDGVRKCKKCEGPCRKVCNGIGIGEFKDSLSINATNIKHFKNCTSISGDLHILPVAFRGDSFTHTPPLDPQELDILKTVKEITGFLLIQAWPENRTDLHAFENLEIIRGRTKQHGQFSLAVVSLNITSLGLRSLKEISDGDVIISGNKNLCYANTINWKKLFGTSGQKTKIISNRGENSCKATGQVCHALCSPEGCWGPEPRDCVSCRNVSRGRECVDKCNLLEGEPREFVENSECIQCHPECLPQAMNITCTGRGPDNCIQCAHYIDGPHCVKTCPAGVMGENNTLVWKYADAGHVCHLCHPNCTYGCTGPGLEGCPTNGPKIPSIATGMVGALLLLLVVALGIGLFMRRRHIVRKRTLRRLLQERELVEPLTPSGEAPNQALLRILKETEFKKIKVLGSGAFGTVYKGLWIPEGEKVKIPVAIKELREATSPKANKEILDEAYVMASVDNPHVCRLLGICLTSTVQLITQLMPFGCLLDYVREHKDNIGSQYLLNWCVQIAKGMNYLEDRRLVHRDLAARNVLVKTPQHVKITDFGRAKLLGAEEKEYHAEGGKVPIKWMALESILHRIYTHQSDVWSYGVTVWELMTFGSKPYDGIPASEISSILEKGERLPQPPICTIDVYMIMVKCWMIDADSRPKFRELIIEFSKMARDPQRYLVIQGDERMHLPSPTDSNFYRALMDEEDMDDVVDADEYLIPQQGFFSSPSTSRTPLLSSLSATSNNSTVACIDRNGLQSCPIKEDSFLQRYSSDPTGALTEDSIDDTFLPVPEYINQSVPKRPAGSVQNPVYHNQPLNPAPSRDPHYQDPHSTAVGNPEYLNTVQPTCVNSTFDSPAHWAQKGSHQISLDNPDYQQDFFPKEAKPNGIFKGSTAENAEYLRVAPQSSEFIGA
T1 sequence (P00533 25-1210 T790M/L858R): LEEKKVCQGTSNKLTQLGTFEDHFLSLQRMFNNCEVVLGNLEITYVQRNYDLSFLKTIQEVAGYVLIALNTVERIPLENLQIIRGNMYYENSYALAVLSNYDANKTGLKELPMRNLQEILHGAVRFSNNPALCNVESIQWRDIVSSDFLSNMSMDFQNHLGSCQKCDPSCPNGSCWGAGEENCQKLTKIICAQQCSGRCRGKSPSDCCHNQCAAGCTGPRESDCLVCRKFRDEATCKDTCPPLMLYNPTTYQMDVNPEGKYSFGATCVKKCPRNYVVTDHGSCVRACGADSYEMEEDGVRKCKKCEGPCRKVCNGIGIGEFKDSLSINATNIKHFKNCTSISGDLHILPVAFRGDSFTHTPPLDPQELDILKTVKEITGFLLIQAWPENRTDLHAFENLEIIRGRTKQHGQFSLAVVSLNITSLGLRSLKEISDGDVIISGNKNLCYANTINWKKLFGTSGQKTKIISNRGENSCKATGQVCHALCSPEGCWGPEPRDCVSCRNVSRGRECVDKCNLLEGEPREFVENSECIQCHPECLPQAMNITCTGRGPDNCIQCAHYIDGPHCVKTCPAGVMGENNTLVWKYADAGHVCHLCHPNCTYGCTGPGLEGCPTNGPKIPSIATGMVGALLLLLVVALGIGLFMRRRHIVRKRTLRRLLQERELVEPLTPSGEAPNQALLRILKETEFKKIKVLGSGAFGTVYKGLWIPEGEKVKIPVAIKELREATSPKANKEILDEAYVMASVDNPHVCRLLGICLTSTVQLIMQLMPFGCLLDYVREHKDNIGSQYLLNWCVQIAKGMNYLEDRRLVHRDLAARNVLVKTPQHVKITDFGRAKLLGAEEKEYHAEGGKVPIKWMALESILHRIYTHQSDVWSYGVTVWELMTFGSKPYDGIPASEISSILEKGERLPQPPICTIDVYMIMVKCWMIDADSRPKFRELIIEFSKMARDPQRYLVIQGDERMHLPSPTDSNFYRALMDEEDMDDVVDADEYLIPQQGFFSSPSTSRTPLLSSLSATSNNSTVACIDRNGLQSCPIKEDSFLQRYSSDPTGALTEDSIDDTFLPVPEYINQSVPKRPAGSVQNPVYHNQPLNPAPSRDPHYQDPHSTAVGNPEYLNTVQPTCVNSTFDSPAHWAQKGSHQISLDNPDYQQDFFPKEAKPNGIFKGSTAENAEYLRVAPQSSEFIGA

| DC50 [1] | DC50 [2] | DC50 [3] | SMILES |
| --- | --- | --- | --- |
| 0.025 µM | 0.006 µM | 0.017 µM | N#Cc1cc(NC2CCC(=O)NC2=O)ccc1C1CCN(CC(=O)N2CCC(c3ccc(-c4cc(F)c5c(c4)C(=O)N(C(C(=O)Nc4nccs4)c4ncn6c4CCC6)C5)cc3)CC2)CC1 (stereo not drawn) [Compound 25, 2-(6-(4-(1-(2-(4-(2-cyano-4-((2,6-dioxopiperidin-3-yl)amino)phenyl)piperidin-1-yl)acetyl)piperidin-4-yl)phenyl)-4-fluoro-1-oxoisoindolin-2-yl)-2-(6,7-dihydro-5H-pyrrolo[1,2-c]imidazol-1-yl)-N-(thiazol-2-yl)acetamide] |
| 0.047 µM | 0.012 µM | 0.011 µM | O=C1CC[C@H](Nc2ccc(C3CCN(CC(=O)N4CCC(Oc5ccc(-c6cc(F)c7c(c6)C(=O)N(C(C(=O)Nc6nccs6)c6ncn8c6CCC8)C7)cc5)CC4)CC3)cc2)C(=O)N1 (stereo partly drawn) [Compound 32, 2-(6,7-dihydro-5H-pyrrolo[1,2-c]imidazol-1-yl)-2-[6-[4-[[1-[2-[4-[4-[[(3S)-2,6-dioxo-3-piperidyl]amino]phenyl]-1-piperidyl]acetyl]-4-piperidyl]oxy]phenyl]-4-fluoro-1-oxo-isoindolin-2-yl]-N-thiazol-2-yl-acetamide] |
| 0.038 µM | 0.008 µM | 0.019 µM | O=C1CC[C@@H](Nc2ccc(C3CCN(CC(=O)N4CCC(Oc5ccc(-c6cc(F)c7c(c6)C(=O)N(C(C(=O)Nc6nccs6)c6ncn8c6CCC8)C7)cc5)CC4)CC3)cc2)C(=O)N1 (stereo partly drawn) [Compound 33, 2-(6,7-dihydro-5H-pyrrolo[1,2-c]imidazol-1-yl)-2-[6-[4-[[1-[2-[4-[4-[[(3R)-2,6-dioxo-3-piperidyl]amino]phenyl]-1-piperidyl]acetyl]-4-piperidyl]oxy]phenyl]-4-fluoro-1-oxo-isoindolin-2-yl]-N-thiazol-2-yl-acetamide] |
| 0.057 µM | 0.013 µM | 0.022 µM | O=C1CCC(Nc2ccc(C3CCN(CC(=O)N4CCC(Oc5ccc(-c6cc(F)c7c(c6)C(=O)N(C(C(=O)Nc6nccs6)c6ncn8c6CCC8)C7)cc5)CC4)CC3)cc2F)C(=O)N1 (stereo not drawn) [Compound 34, 2-(6,7-dihydro-5H-pyrrolo[1,2-c]imidazol-1-yl)-2-(6-(4-((1-(2-(4-(4-((2,6-dioxopiperidin-3-yl)amino)-3-fluorophenyl)piperidin-1-yl)acetyl)piperidin-4-yl)oxy)phenyl)-4-fluoro-1-oxoisoindolin-2-yl)-N-(thiazol-2-yl)acetamide] |
| 0.046 µM | 0.009 µM | 0.012 µM | O=C1CCC(Nc2ccc(C3CCN(CC(=O)N4CCC(Oc5ccc(-c6cc(F)c7c(c6)C(=O)N(C(C(=O)Nc6nccs6)c6ncn8c6CCC8)C7)cc5)CC4)CC3)c(F)c2)C(=O)N1 (stereo not drawn) [Compound 35, 2-(6,7-dihydro-5H-pyrrolo[1,2-c]imidazol-1-yl)-2-(6-(4-((1-(2-(4-(4-((2,6-dioxopiperidin-3-yl)amino)-2-fluorophenyl)piperidin-1-yl)acetyl)piperidin-4-yl)oxy)phenyl)-4-fluoro-1-oxoisoindolin-2-yl)-N-(thiazol-2-yl)acetamide] |
| 0.046 µM | 0.016 µM | 0.019 µM | N#Cc1cc(NC2CCC(=O)NC2=O)ccc1C1CCN(CC(=O)N2CCC(Oc3ccc(-c4cc(F)c5c(c4)C(=O)N(C(C(=O)Nc4nccs4)c4ncn6c4CCC6)C5)cc3)CC2)CC1 (stereo not drawn) [Compound 37, 2-(6-(4-((1-(2-(4-(2-cyano-4-((2,6-dioxopiperidin-3-yl)amino)phenyl)piperidin-1-yl)acetyl)piperidin-4-yl)oxy)phenyl)-4-fluoro-1-oxoisoindolin-2-yl)-2-(6,7-dihydro-5H-pyrrolo[1,2-c]imidazol-1-yl)-N-(thiazol-2-yl)acetamide] |
| 0.022 µM | 0.006 µM | 0.012 µM | O=C1CC[C@H](Nc2ccc(C3CCN(CC(=O)N4CCN(c5ccc(-c6cc(F)c7c(c6)C(=O)N(C(C(=O)Nc6nccs6)c6ncn8c6C[C@@H](F)C8)C7)cc5)CC4)CC3)c(F)c2)C(=O)N1 (stereo partly drawn) [Compound 44, 2-[6-[4-[4-[2-[4-[4-[[(3S)-2,6-dioxo-3-piperidyl]amino]-2-fluoro-phenyl]-1-piperidyl]acetyl]piperazin-1-yl]phenyl]-4-fluoro-1-oxo-isoindolin-2-yl]-2-[(6R)-6-fluoro-6,7-dihydro-5H-pyrrolo[1,2-c]imidazol-1-yl]-N-thiazol-2-yl-acetamide] |
| 0.018 µM | 0.01 µM | 0.009 µM | O=C1CCC(Nc2ccc(C3CCN(CC(=O)N4CC5(C4)CN(c4ccc(-c6cc(F)c7c(c6)C(=O)N(C(C(=O)Nc6nccs6)c6ncn8c6CCC8)C7)cc4)C5)CC3)cc2)C(=O)N1 (stereo not drawn) [Compound 47, 2-(6,7-dihydro-5H-pyrrolo[1,2-c]imidazol-1-yl)-2-[6-[4-[2-[2-[4-[4-[(2,6-dioxo-3-piperidyl)amino]phenyl]-1-piperidyl]acetyl]-2,6-diazaspiro[3.3]heptan-6-yl]phenyl]-4-fluoro-1-oxo-isoindolin-2-yl]-N-thiazol-2-yl-acetamide] |
| 0.028 µM | 0.007 µM | 0.011 µM | O=C1CC[C@H](Nc2ccc(C3CCN(CC(=O)N4CC5(C4)CN(c4ccc(-c6cc(F)c7c(c6)C(=O)N(C(C(=O)Nc6nccs6)c6ncn8c6CCC8)C7)cc4)C5)CC3)c(F)c2)C(=O)N1 (stereo partly drawn) [Compound 48, 2-(6,7-dihydro-5H-pyrrolo[1,2-c]imidazol-1-yl)-2-[6-[4-[2-[2-[4-[4-[[(3S)-2,6-dioxo-3-piperidyl]amino]-2-fluoro-phenyl]-1-piperidyl]acetyl]-2,6-diazaspiro[3.3]heptan-6-yl]phenyl]-4-fluoro-1-oxo-isoindolin-2-yl]-N-thiazol-2-yl-acetamide] |
| 0.046 µM | 0.011 µM | 0.007 µM | O=C1CCC(Nc2ccc(C3CCN(CC(=O)N4CCN(Cc5ccc(-c6cc(F)c7c(c6)C(=O)N(C(C(=O)Nc6nccs6)c6ncn8c6CCC8)C7)cc5)CC4)CC3)c(F)c2)C(=O)N1 (stereo not drawn) [Compound 57, 2-(6,7-dihydro-5H-pyrrolo[1,2-c]imidazol-1-yl)-2-[6-[4-[[4-[2-[4-[4-[(2,6-dioxo-3-piperidyl)amino]-2-fluoro-phenyl]-1-piperidyl]acetyl]piperazin-1-yl]methyl]phenyl]-4-fluoro-1-oxo-isoindolin-2-yl]-N-thiazol-2-yl-acetamide] |
| 0.026 µM | 0.026 µM | 0.014 µM | O=C1CC[C@H](Nc2ccc(C3CCN(CC(=O)N4CCN(Cc5ccc(-c6cc(F)c7c(c6)C(=O)N(C(C(=O)Nc6nccs6)c6ncn8c6CCC8)C7)cc5)CC4)CC3)c(F)c2)C(=O)N1 (stereo partly drawn) [Compound 58, 2-(6,7-dihydro-5H-pyrrolo[1,2-c]imidazol-1-yl)-2-[6-[4-[[4-[2-[4-[4-[[(3S)-2,6-dioxo-3-piperidyl]amino]-2-fluoro-phenyl]-1-piperidyl]acetyl]piperazin-1-yl]methyl]phenyl]-4-fluoro-1-oxo-isoindolin-2-yl]-N-thiazol-2-yl-acetamide] |
| 0.019 µM | 0.012 µM | 0.008 µM | O=C1CC[C@H](Nc2ccc(C3CCN(C(=O)CN4CCN(Cc5ccc(-c6cc(F)c7c(c6)C(=O)N(C(C(=O)Nc6nccs6)c6ncn8c6CCC8)C7)cc5)CC4)CC3)c(F)c2)C(=O)N1 (stereo partly drawn) [Compound 59, 2-(6,7-dihydro-5H-pyrrolo[1,2-c]imidazol-1-yl)-2-[6-[4-[[4-[2-[4-[4-[[(3S)-2,6-dioxo-3-piperidyl]amino]-2-fluoro-phenyl]-1-piperidyl]-2-oxo-ethyl]piperazin-1-yl]methyl]phenyl]-4-fluoro-1-oxo-isoindolin-2-yl]-N-thiazol-2-yl-acetamide] |
